Assays:
AMPK-α1 AA mutant = biological target: T1, AMPK-α1 AA mutant (Homo sapiens, UniProt Q13131, K40A/K42A); test: AMPK activity of FLAG-tagged AMPK-α1 K40A/K42A (AA) mutant expressed in HEK293 cells; format: cell-based
T1 construct: Plasmid encoding full-length human AMPK-α1; expressed in transfected cells; host or cells: HEK293
Text: (B) Western blotting of the same preparations as in (A). […] (D) Allosteric activation of WT and mutant α1β1γ1 complexes by MT 63-78, curve fitting as for (C). […] (E) Allosteric activation of WT and mutant α1β1γ1 complexes by AMP. Data were fitted to the equation for activation/inactivation by AMP ([Gowans et al., 2013]). […] (F) Activation of WT and AA mutant by various AMPK activators in HEK293 cells. […] FLAG-tagged complexes were isolated by immunoprecipitation and AMPK activity determined (mean ± SEM, n = 2).
We next expressed the FLAG-tagged WT or AA mutant of AMPK-α1 by transient transfection in HEK293 cells, treated with various agents, and measured AMPK activity in anti-FLAG immunoprecipitates. In Figure 4F, the results are expressed as absolute activities and are accompanied by blots showing Thr172 phosphorylation.

ACC = ACC phosphorylation in HEK293 cells (western blot); format: cell-based, human; conditions: 1 hr
Experimental: Figure 1 SU6656 Activates AMPK but Not AMPK-Related Kinases (A) HEK293 cells were incubated with the indicated concentrations of SU6656 or berberine (300 μM) for 1 hr; total AMPK activity was assayed in immunoprecipitates (top; mean ± SEM, n = 4), and phosphorylation of AMPK (Thr172), ACC (Ser80), and Raptor (Ser792) analyzed by western blotting (bottom; n = 2). (B) HEK293 cells were incubated with 100 μM SU6656 (1 hr), AMPK complexes containing α1, α2, β1, and β2 immunoprecipitated using isoform-specific antibodies, and AMPK activity measured (mean ± SEM, n = 4). (C) HeLa cells stably expressing LKB1 ([Fogarty et al., 2010]) were incubated with 100 μM SU6656 for 1 hr, AMPK or individual ARKs immunoprecipitated, and kinase assays carried out (antibodies that distinguish MARK2/MARK3 were not available, so they were assayed together). Results are means ± SEM (n = 2). In all panels, asterisks indicate significant differences from controls without SU6656. *p < 0.05, **p < 0.01, ****p < 0.0001.
(B) WT or RG cells were treated as in (A) and nucleotides extracted for analysis (mean ± SD, n = 3). […] (E) (See also Figure S2) Time courses of cellular oxygen uptake before and after addition of the indicated concentrations of sorafenib (SO, μM), SU6656 (100 μM) or phenformin (PHEN, 10 mM) (mean ± SEM, n = 4). (F) Effect of various concentrations of sorafenib or phenformin (10 mM) on activation (top, mean ± SEM, n = 3) or phosphorylation (bottom) of AMPK in cells expressing wild-type AMPK-γ2 (WT) or the R531G mutant AMPK-γ2 (RG). In all panels, asterisks show significant differences from DMSO controls (ns, not significant). […]
Cells were incubated for 60 min and AMPK activity measured; results in the top panel are means ± SEM (n = 8), with significant differences from the DMSO control indicated (ns, not significant). […]
SDS-PAGE was performed using precast Bis-Tris 4–12% gradient polyacrylamide gels in the MOPS buffer system (ThermoFisher Scientific). […] Protein concentrations were determined by Coomassie Blue binding with bovine serum albumin as standard ([Bradford, 1976]). […]

HEK293 cells = test: Cellular oxygen uptake; format: cell-based, human
Experimental: (B) WT or RG cells were treated as in (A) and nucleotides extracted for analysis (mean ± SD, n = 3). […] (E) (See also Figure S2) Time courses of cellular oxygen uptake before and after addition of the indicated concentrations of sorafenib (SO, μM), SU6656 (100 μM) or phenformin (PHEN, 10 mM) (mean ± SEM, n = 4). (F) Effect of various concentrations of sorafenib or phenformin (10 mM) on activation (top, mean ± SEM, n = 3) or phosphorylation (bottom) of AMPK in cells expressing wild-type AMPK-γ2 (WT) or the R531G mutant AMPK-γ2 (RG). In all panels, asterisks show significant differences from DMSO controls (ns, not significant). In (B), daggers (†) show significant differences between results in WT and RG cells. *p < 0.05, **p < 0.01, ***p < 0.001, ****p < 0.0001, ^††††p < 0.0001.
Cellular oxygen consumption rate was measured using a Seahorse XF24 Extracellular Flux Analyser according to manufacturers’ instructions, as specified previously ([Hawley et al., 2010]).
Oxygen uptake of HEK-293 cells measured under basal conditions
(open bars), after addition of the indicated concentration of SU6656 or berberine (300 µM) (gray bars), then after subsequent addition of the uncoupler 2,4-dinitrophenol (DNP, hatched bars, 100 µM) […]
different before and after addition of SU6656 or berberine, while […]
subsequent addition of DNP.

T1 sequence (Q13131 whole entry K40A/K42A): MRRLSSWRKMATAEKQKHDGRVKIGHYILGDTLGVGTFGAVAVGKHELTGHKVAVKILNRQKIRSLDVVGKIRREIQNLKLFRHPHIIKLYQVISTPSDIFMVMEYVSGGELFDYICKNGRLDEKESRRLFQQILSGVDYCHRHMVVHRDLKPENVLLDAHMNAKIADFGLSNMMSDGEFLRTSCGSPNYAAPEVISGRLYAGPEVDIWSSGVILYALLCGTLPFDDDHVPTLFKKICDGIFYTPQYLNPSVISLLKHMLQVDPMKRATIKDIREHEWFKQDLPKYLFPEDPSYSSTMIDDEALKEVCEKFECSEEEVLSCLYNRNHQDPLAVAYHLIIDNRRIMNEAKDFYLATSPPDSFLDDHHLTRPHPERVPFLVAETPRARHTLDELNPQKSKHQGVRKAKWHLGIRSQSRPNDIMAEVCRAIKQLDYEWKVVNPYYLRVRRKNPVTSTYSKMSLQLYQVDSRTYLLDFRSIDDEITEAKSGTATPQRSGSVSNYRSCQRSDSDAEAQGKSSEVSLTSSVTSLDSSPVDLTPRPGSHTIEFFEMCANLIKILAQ
T1 sequence (P54619 whole entry partner): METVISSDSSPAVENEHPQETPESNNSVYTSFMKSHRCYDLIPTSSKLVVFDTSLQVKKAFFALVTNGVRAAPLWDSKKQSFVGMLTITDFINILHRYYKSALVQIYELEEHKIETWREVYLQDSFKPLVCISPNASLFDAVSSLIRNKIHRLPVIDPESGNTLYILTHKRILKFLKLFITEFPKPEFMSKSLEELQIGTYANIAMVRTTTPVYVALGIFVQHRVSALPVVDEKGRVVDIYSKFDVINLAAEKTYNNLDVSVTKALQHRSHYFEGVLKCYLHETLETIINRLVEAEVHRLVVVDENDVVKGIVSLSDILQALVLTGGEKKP

increase in activity and Thr172 phosphorylation (AMPK-α1 AA mutant; AA mutant FLAG-α1, 100 μM, relative to DMSO control) [fold]	effect of AA mutation on AMPK activation (AMPK-α1 AA mutant; AA mutant FLAG-α1, same concentrations, 1 hr)	SMILES	ACC phosphorylation (ACC)	cellular oxygen uptake (HEK293 cells)	concentrations that rapidly inhibited cellular oxygen uptake (HEK293 cells) [µM]
3	–	CN(C)S(=O)(=O)c1ccc2c(c1)/C(=C/c1cc3c([nH]1)CCCC3)C(=O)N2 [SU6656]	increased phosphorylation	no effects	–
–	–	CNC(=O)c1cc(Oc2ccc(NC(=O)Nc3ccc(Cl)c(C(F)(F)F)c3)cc2)ccn1 [sorafenib]	promoted Thr172 and ACC phosphorylation	–	3 to 30
–	abolished	COc1ccc2cc3[n+](cc2c1OC)CCc1cc2c(cc1-3)OCO2 [berberine]	–	–	–

— article PMC5522529, “Mechanisms of Paradoxical Activation of AMPK by the Kinase Inhibitors SU6656 and Sorafenib” (Cell Chemical Biology, 2017)
